Data on one compound can be found in ChEMBL document CHEMBL3244369, “Synthesis and inhibition analysis of 2(4)-imino-4(2)-amino-2,4-dideoxyriboflavin, a dual antagonist of riboflavin and folinic acid” (J Med Chem, 1977).

Holding throughout (format): functional
Assay [1] can be described thus: Antifolate activity against Lactobacillus leichmannii at 20 ug/ml.
Assay [2] has as its system Lactobacillus leichmannii. The experiment in a line: Inhibition index, ratio of antifolate activity against Lactobacillus leichmannii in presence of 250 ug/ml of riboflavin to antifolate activity against Lactobacillus leichmannii absence of riboflavin.
Assay [3] in a line: Antifolate activity against Lactobacillus leichmannii at 20 to 60 ug/ml in presence of 0.02 ug/ml of folinic acid.
Assay [4] concerns Lactobacillus leichmannii. The experiment in a line: Inhibition index, ratio of antifolate activity against Lactobacillus leichmannii in presence of 0.02 ug/ml of folinic acid to antifolate activity against Lactobacillus leichmannii absence of folinic acid.
Assay [5] can be described thus: Antifolate activity against Lactobacillus leichmannii at 150 ug/ml in presence of 0.02 ug/ml of folinic acid and 250 ug/ml riboflavin.
Assay [6] in a line: Antifolate activity against Lactobacillus leichmannii at 7 ug/ml.

Calls of active or inactive are those of the source. The rule behind the calls is not given here.

Take `Cc1cc2nc3c(N)nc(=N)nc-3n(C[C@H](O)[C@H](O)[C@H](O)CO)c2cc1C`: the “growth inhibition (GI)” value in assay [1] and in assay [6] was “Active” each time. Further, the Ratio in assay [2] amounted to 1.5; in assay [4] it was 6000. Besides, the “growth inhibition (GI)” value in assay [3] and in assay [5] was “inactive” in each case.
